From a melting point compilation (Tetko et al.; mined from patent text by program, amines drawn as free bases though some values may be those of a salt)

Structure (SMILES)	melting point
CCc1cn2ccccc2c1S(=O)(=O)c1ccc(OCCCBr)cc1	136 °C
CN(C)c1ccc(-c2cccc3c2C2(COc4cc5c(cc42)OCO5)C(=O)N3Cc2ccc(C(F)(F)F)o2)cn1 (stereo not given)	174 to 176 °C
CCOC(=O)Cn1cc(-c2ccc(F)cc2)c(-c2ccc(S(C)(=O)=O)cc2)n1	116 to 118 °C
NC(=O)c1cncc(N)c1	263 to 264 °C
Cc1cc(NC(=O)C(C)(O)COc2ccc(OCCCl)cc2)ccc1[N+](=O)[O-] (stereo not given)	131 to 133 °C
CC(C)c1cc(C(C)C)c2sc3ccccc3c(=O)c2c1	74 to 76 °C
CCCCCCCCCC(=O)Nc1ccccc1	65 to 66 °C
COc1ccc(C2CCN(c3c(C)c(C)c4c(c3C)C(O)C(C)(C)O4)CC2)cc1OC (stereo not given)	140 to 142 °C
CN(C)CCOc1ccc(C(=C(c2ccccc2)C(F)(F)F)c2ccc(O)cc2)cc1	149 to 155 °C
CCOC(=O)c1cc(-c2ccc(OC)cc2)nn(Cc2ccc(Cl)cc2Cl)c1=O	136 °C
CN(C)c1ccc(NC(=O)N(Cc2ccccc2)C[C@H]2CC[C@H](CN(Cc3ccccc3)C(=O)Nc3ccc(N(C)C)cc3)CC2)cc1	142 to 144 °C
CC(C)OCC(O)COc1ccc(/C=C/C(=O)O)c(Oc2ncc(C(F)(F)F)cc2Cl)c1 (stereo not given)	92 to 93 °C
O=C(Nc1cc(-c2ccc(Cl)cc2)no1)c1c(Cl)cccc1Cl	208 to 209 °C
COc1cc(Cn2c(-c3ccc(OCc4ccccc4)cc3)c(C)c3cc(OCc4ccccc4)ccc32)ccc1OCCBr	150 to 152 °C
OC1(c2ccc3[nH]cc(CCN4CCCC4)c3c2)CCCCC1	66 to 78 °C
CCCCCCCCCCOc1ccccc1C(=N)OCC	93 to 96 °C
O=C(COc1cc(-c2ccsc2)nc2ccccc12)N1CCOCC1	183 °C
CCOC(=O)C(NC(=O)OCc1ccccc1)C(=O)OCC	36.5 to 37 °C
N=C(N)NC1=NC(=O)C(=Cc2cccc(-c3cc(F)c(O)c(C45CC6CC(CC(C6)C4)C5)c3)c2)S1	288 to 290 °C
CCCCCCCN1C(=O)C2CC(c3ccc([N+](=O)[O-])cc3)(C2)C1=O	91 to 92 °C
CC1(C)Oc2cc3c(cc2O1)OC(C)(C)O3	122 °C
CCn1cc(-c2cccc(Cl)c2)c(=O)n1-c1cccc(C(F)(F)F)c1	113 to 114 °C
CN(C(=O)c1ccc2nonc2c1)C1CCOCC1	160 to 162 °C
N#CC(=Cc1ccc([N+](=O)[O-])cc1)c1ccc([N+](=O)[O-])cc1	216 to 218 °C
BrCCOc1cccc2c1SCCC2	62 °C

Structure (SMILES)	melting point
CNC1=Nc2ccc(Cl)cc2C(c2ccc[nH]2)=NC1	251 °C
CCCN(CCCc1c[nH]c2ccc(F)cc12)C1COc2c(F)ccc(C(=O)NC)c2C1 (stereo not given)	123 °C
CCCC(=O)c1c(C(C)(C)C)cc(C=[N+]([O-])C(C)(C)C)cc1C(C)(C)C	217 to 236 °C
CCCCN(C)Cc1c(-c2ccccc2)sc(N)c1C(=O)c1ccc(Cl)cc1	84 to 88 °C
COc1ccc(C(=O)NCc2ccc3c(c2)C(=O)N(C2CCC(=O)NC2=O)C3=O)cc1 (stereo not given)	215 to 217 °C
CC(=O)NCC1CC(c2ccc(N3CCS(=O)CC3)c(F)c2)=NO1 (stereo not given)	204 to 205 °C
O=C(O)c1nc2n(n1)-c1ccccc1N(c1cccc(C(F)(F)F)c1)C2	204 to 206 °C
CCOc1ccc(C=[N+]([O-])C2CCCCC2)cc1	124 °C
Cc1c(Nc2c(C#N)cnc3scc(CO)c23)ccc2[nH]ccc12	230 °C
CN1CCN(c2cc(Cl)cc3c2c(=O)n(Cc2ccc(F)cc2)c(=O)n3Cc2ccccc2)CC1	110 to 114 °C
NC1(C(=O)O)CC(OC(=O)Nc2ccccc2F)C2C(C(=O)O)C21 (stereo not given)	232 to 233 °C
COc1ccc2c(c1)-c1noc(N3CCCNCC3)c1CC2	106 to 109 °C
O=C(CCl)NCCCCOc1cc(CN2CCCCC2)ccn1	59 to 63 °C
COc1c(N2CCCC(NC(C)=O)C2)c(F)cc2c(=O)c(C(=O)O)cn(C3CC3)c12 (stereo not given)	176 to 177 °C
CC(C)(C)OC(=O)Nc1cc(OC(C)(C)C)c(-c2ccccc2F)cc1N	130 °C
CCc1cc(OCc2ccccc2)cc(C(=O)O)c1C(=O)OC	135 to 136 °C
COc1cc(C(C)=O)ccc1OCCCN1CCCC(C(O)(c2ccc(F)cc2)c2ccc(F)cc2)C1 (stereo not given)	100 to 105 °C
COc1ccc2nc(OC)cc(C)c2c1	58 to 59 °C
CCOC(=O)CSc1nc(O)ns1	131 °C
COc1cc2c(cc1C(C)=O)CCCC2C (stereo not given)	48 to 50 °C
C[C@H]1Cc2cccc3sc(=O)n(c23)C1	54 to 56 °C
CC(C)c1ccc2c(c1)c(S(=O)(=O)c1ccccc1)c(CC(C)(C)C(=O)O)n2Cc1ccc(Cl)cc1	169 to 172 °C
CNC(=Nc1cccc(C(F)(F)F)c1)C(C)C	52 to 54 °C
O=C(NC1CN2CCC1CC2)c1cccc2nc(-c3ccc(Cl)cc3)oc12 (stereo not given)	181 to 183 °C
C[C@H]1Cn2c(=O)[nH]c3cccc(c32)CN1	190 °C

Structure (SMILES)	melting point
O=C1c2c(c(=O)n3nc(-c4ccccc4)cc3n2Cc2ccccc2)CN1C1CCCCC1	276 to 278 °C
N/C(=C1/Sc2ccccc2C1=O)c1ccc(F)cc1	158 °C
CCC(=O)Oc1cc(OC)cc(OC)c1C(=O)C=Cc1ccc(C)cc1	156 °C
CC1(C)C2C=CC3(C)C(C2)C(=O)CCC13O[Si](C)(C)C (stereo not given)	73 to 76 °C
CCOC(=O)C1(C(=O)O)CN(C2CC2)c2nc3cc(N4CC(N)C4C)c(F)cc3cc2C1=O (stereo not given)	170 °C
CC(C)Sc1cc([Si](C)(C)C)oc1C(=O)O	181 to 183 °C
Clc1ccc(C2=NOCCS2)cc1	80.5 to 81.5 °C
CNc1nnc(-c2ccc3ncn(-c4ccc(OC(F)(F)F)cc4)c3c2)o1	183 to 184 °C
COCCN1CC(=O)C(C#N)=C1C#N	108 to 110 °C
Clc1ncnc(Cl)c1C1OCCO1	108 to 110 °C
Cc1ccc(S(=O)(=O)OC[C@@H](O)CCc2ccccc2)cc1	68 to 69 °C
O=c1nc(-c2ccccn2)sc2cccc(F)c12	256 to 257 °C
NC(=O)Oc1ccccc1-c1nc2cc(F)c(OCc3c(Cl)cccc3Cl)cc2s1	245 to 250 °C
N#Cc1ccc(-c2ccc(OC(F)(F)F)c(CNC3CCN(C(=O)C(N)=O)CC3c3ccccc3)c2)c(F)c1 (stereo not given)	142 to 144 °C
COc1cccc([C@H]2O[C@H](CC(=O)NCCc3oc(C(=O)O)cc3C(=O)O)C(=O)N(CC(C)(C)CO)c3ccc(Cl)cc32)c1OC	155 to 157 °C
CC(C)(C)OC(=O)C(ON)c1ccccc1 (stereo not given)	48.2 to 49.6 °C
CC(C)Cn1c(C(F)(F)F)nc2cc(F)c(-n3c(=O)cc(C(F)(F)F)n(C)c3=O)cc21	169 to 170 °C
CC(C)C1(C)Cc2cc(O)c(Cl)c(Cl)c2C1=O (stereo not given)	215 °C
CCCCOc1cc(-c2cc3ccccc3[nH]2)ccc1O	163 °C
O=c1cc(C(F)(F)F)cc(-c2ccc(C(F)(F)F)cc2)[nH]1	203 to 204 °C
COc1ccc(C2=NN(CCCCCCBr)C(=O)[C@H]3CC=CC[C@@H]23)cc1OC (relative stereo)	55 to 56 °C
O=C(c1cccc(Cl)c1)N1CCc2cc(S(=O)(=O)N3CC(c4ccccc4)NC3=O)ccc21 (stereo not given)	132 to 136 °C
CC1=CC(O)(c2nc3ccccc3s2)C=C(C)C1=O	132 °C
Cc1cccc(CCC(CO)n2cnc(C(N)=O)c2)c1 (stereo not given)	116 to 118 °C
NS(=O)(=O)c1cc2cnccc2o1	216 to 218 °C

Structure (SMILES)	melting point
O=[N+]([O-])c1c(NCCC23CCCN2CCC3)cnc2ccccc12	106 to 108 °C
CCOC(=O)C1=C(O)c2cc3ccccc3n2CC1	101 to 103 °C
Cc1ccc(O)c(Cn2c(N)nc3ccc(CNc4cccc(OC(F)(F)F)c4)cc32)n1	156 °C
CC(C)(C)OC(=O)NN=Cc1ccccc1	184 to 186 °C
NS(=O)(=O)c1ccsc1CO	85 to 89 °C
COC(=O)C1CC(=NO)c2c(Cl)cc(Cl)cc2N1 (stereo not given)	216 to 217 °C
CCOC(=O)C=Cc1cc(Cl)cc(Cl)c1	71 to 73 °C
COc1cc(CC(C#N)C(OC)OC)cc(OC)c1Cl (stereo not given)	84 °C
COc1ccnc(C(=O)N[C@H]2COC(=O)[C@H](CCOC(=O)c3ccccc3)[C@@H](OC(=O)C(C)C)[C@H](C)OC2=O)c1OCOC(=O)C(C)C	48 to 50 °C
CCCc1nc(N(C)c2ccccc2)n2ncc(C(O)c3ccccc3Cl)c2n1 (stereo not given)	153 to 155 °C
CC1CCC2C3CCC4CC(O)CCC4(C)C3C(N(C)C)CC12C (stereo not given)	150 to 156 °C
O=C(O)c1cc2cc(Cl)ccc2nc1N[C@@H](Cc1ccc([N+](=O)[O-])cc1)C(=O)O	174 to 176 °C
CC(C)(C)C#CC(O)(Cn1cncn1)C(C)(C)C (stereo not given)	114 to 118 °C
CCCn1c(=O)c2[nH]c(-c3cc(C)n(CC(=O)Nc4ccc(C)c(C)c4)n3)nc2n(CCC)c1=O	261 to 265 °C
Cc1ccc(-c2nc(Cc3cc4cc(C=O)ccc4o3)c(C)o2)cc1	126 to 130 °C
CN(C)Cc1cccc(OCCCNc2nc(N)nn2C)c1	95 to 96.5 °C
Nc1cc(F)c(Cl)c(Br)c1Cl	126 to 130 °C
CC[C@H](C)[C@H](OCc1ccccc1)[C@H]1[C@H]([N+](=O)[O-])[C@@H]([C@@H](OCc2ccccc2)C(C)C)N[C@@H]1C(=O)O	172 to 174 °C
O=C(c1cccs1)c1cnn2c(-c3cc([N+](=O)[O-])ccc3Cl)ccnc12	162 to 166 °C
Cc1ccc(CNC(=O)c2ccc3n2Cc2ccccc2N(C(=O)c2ccc(-c4ccccc4C)c(C)c2)C3)cc1	179 to 181 °C
Cc1[nH]c2c(ccc3sc4ccccc4c32)c1C=O	192 to 194 °C
CC1=C(c2ccc(O)cc2)C(=O)c2cc(O)c(O)cc21	226 to 229 °C
CCCCn1c(=O)c2nc(C(=O)O)cn2c2ccccc21	220 to 222 °C
CCOC(=O)c1c(Cl)nc2cc3c(cc2c1CCl)OCCO3	> 260 °C
CCOC(=O)CC1c2cc(C(F)(F)F)ccc2C(=O)N1CC(F)(F)F (racemic)	54.5 to 55.5 °C
